# Values of other authors in patent US20060003984A1, “Monobactam compositions and methods of use thereof” (Chiron Corporation, priority 2001, published 2006).
# Test system: Gram-negative bacteria
# Conditions: many Gram-negative bacteria
smiles,measurement,value
NC[C@H]1O[C@H](O[C@H]2[C@H](O)[C@@H](O[C@H]3O[C@H](CO)[C@@H](O)[C@H](N)[C@H]3O)[C@H](N)C[C@@H]2N)[C@H](N)C[C@@H]1O [tobramycin],concentration effective in inhibiting growth,< 4 µg/mL
